Data on 15 compounds can be found in ChEMBL document CHEMBL4346677, “Compounds based on 5-(perylen-3-ylethynyl)uracil scaffold: High activity against tick-borne encephalitis virus and non-specific activity against enterovirus A” (Eur J Med Chem, 2019).

pEC50: −log10 of the molar value. Calls of active or inactive are those of the source. The calls are words filed in the database; no cut-off is given here.

The test system of data set [1] is Vero. As to the kind of experiment: Cytotoxicity against African green monkey Vero cells assessed as formation of syncytium-like patterns of cells at 50 uM after 7 days by microscopic method. As to conditions: chlorocebus sabaeus, 168 h. In kind it is cell-based.
Data set [2] can be described thus: Cytotoxicity against PEK cells assessed as reduction in cell viability after 24 hrs by microscopic method. In kind it is cell-based, Sus scrofa. As to conditions: pig.
Data set [3] is described as follows: Cytotoxicity against African green monkey Vero cells assessed as reduction in cell viability after 24 hrs by microscopic method. The format is cell-based. The conditions noted are these: chlorocebus sabaeus.
In data set [4] the test system is Tick-borne encephalitis virus. As to the kind of experiment: Antiviral activity against TBEV Absettarov infected in PEK cells assessed as plaque reduction preincubated for 1 hr followed by overlaying with 1.26% methylcellulose and measured after 6 days by gentian violet staining-based assay. The format is functional, organism-based.
Data set [5] can be described thus: Cytotoxicity against PEK cells assessed as formation of syncytium-like patterns of cells at 50 uM after 7 days by microscopic method. In kind it is cell-based, Sus scrofa. As to conditions: pig, 168 h.
For data set [6], the system named is RD. As to the kind of experiment: Cytotoxicity against human RD cells assessed as formation of syncytium-like patterns of cells at 50 uM after 7 days by microscopic method. In kind it is cell-based. As to conditions: 168 h.
Data set [7] in a line: Cytotoxicity against human RD cells assessed as reduction in cell viability after 24 hrs by microscopic method. The format is cell-based.
Data set [8] relates to Poliovirus 1. The experiment in a line: Antiviral activity against poliovirus type 1 sabin 1. In kind it is functional, organism-based.
A short description of data set [9]: Cytotoxicity against PEK cells assessed as reduction in cell viability after 7 days by microscopic method. The format is cell-based, Sus scrofa. As to conditions: pig.
Data set [10] is described as follows: Cytotoxicity against human RD cells assessed as reduction in cell viability after 7 days by microscopic method. The format is cell-based.
Data set [11] has as its system Enterovirus A71. As to the kind of experiment: Antiviral activity against Enterovirus A71 isolate 46973 infected in human RD cells assessed as reduction in virus induced cytopathic effect preincubated with viral suspension for 1 hr followed by cell addition measured after 5 to 7 days. The format is functional, organism-based. In general terms: Cytopathic effects are the visible damage that an infection or toxin causes in cultured cells.

Data set [12] in a line: Cytotoxicity against African green monkey Vero cells assessed as reduction in cell viability after 7 days by microscopic method. As to conditions: chlorocebus sabaeus. The format is cell-based.
Data set [13] has as its system Echovirus. As to the kind of experiment: Antiviral activity against Echovirus 30 isolate 48461. The format is functional, organism-based.
For data set [14], the system named is Human alphaherpesvirus 1. As to the kind of experiment: Antiviral activity against HSV-1 infected in African green monkey Vero cells preincubated with virus for 5 mins. The format is functional, organism-based. The conditions noted are these: Human alphaherpesvirus 1, Vero.

`O=C(Cn1cc(C#Cc2ccc3c4cccc5cccc(c6cccc2c63)c54)c(=O)[nH]c1=O)NCCCO`: the Activity entry in data set [1], in [5] and in data set [6] was “Toxic” throughout. In addition, the CC50 at 24 h in data set [2] was above 50 µM; in [3], above 50 µM; in data set [7], above 104 µM. Besides, in data set [4], the pEC50 was 8.22. Besides, the result in [8] and in data set [13] was inactive. Besides, the CC50 at 168 h in data set [9] was above 50 µM; in data set [10], above 104 µM; in [12], above 50 µM. Moreover, in [11], the EC50 entry is given as “Not Active”.

For `O=C(Cn1cc(C#Cc2ccc3c4cccc5cccc(c6cccc2c63)c54)c(=O)[nH]c1=O)NCCCCCO`, the Activity entry in data set [1], in data set [5] and in data set [6] was “Toxic” in each case. For the same compound, the CC50 at 24 h is above 50 µM in data set [2], above 50 µM in data set [3] and above 104 µM in [7]. Further, in data set [4], the pEC50 is 7.11. In addition, the outcome in [8] and in [13] was inactive. Besides, the CC50 at 168 h in [9] is above 50 µM; in data set [10], above 104 µM; in [12] it was above 50 µM. Besides, the EC50 result in [11] is listed as “Not Active”.

For `O=C(Cn1cc(C#Cc2ccc3c4cccc5cccc(c6cccc2c63)c54)c(=O)[nH]c1=O)NCCCCCCO`, the Activity entry in data set [1], in [5] and in [6] was “Toxic” throughout. In addition, the CC50 at 24 h is above 50 µM in data set [2], 38 µM in [3] and 19 µM in data set [7]. Also, the pEC50 in data set [4] is 8.21. The outcome in [8] and in data set [13] was inactive. Moreover, the figures for the CC50 at 168 h in data set [9], in [10] and in [12] were above 50 µM, 38 µM and above 50 µM, respectively. The EC50 result in data set [11] is on record as “Not Active”.

Regarding `CC(C)(C)C(=O)OCn1c(=O)c(C#Cc2ccc3c4cccc5cccc(c6cccc2c63)c54)cn(CC(=O)NCCO)c1=O`, the Activity result in data set [1], in data set [5] and in data set [6] was “Toxic” each time. Also, the values for the CC50 at 24 h in data set [2], in data set [3] and in [7] were above 50 µM, 32 µM and 19 µM, respectively. The pEC50 in data set [4] was 8.68. Moreover, the result in data set [8] and in data set [13] was inactive. Moreover, the CC50 at 168 h was above 50 µM in data set [9], 38 µM in data set [10] and 38 µM in data set [12]. Further, the EC50 result in data set [11] is recorded as “Not Active”.

Turning to `CC(C)(C)C(=O)OCn1c(=O)c(C#Cc2ccc3c4cccc5cccc(c6cccc2c63)c54)cn(CC(=O)O)c1=O`, the Activity result in [1], in data set [5] and in [6] was “Toxic” each time. For the same compound, the CC50 at 24 h in [2] was above 50 µM. The pEC50 in data set [4] is 8.92. For the same compound, the result in data set [8] and in data set [13] was inactive. Besides, in data set [9], the CC50 at 168 h was above 50 µM.

On to `O=C(O)Cn1cc(C#Cc2ccc3c4cccc5cccc(c6cccc2c63)c54)c(=O)[nH]c1=O`, for which the Activity result in data set [1], in data set [5] and in [6] was “Toxic” throughout. Further, the values for the CC50 at 24 h in data set [2], in [3] and in [7] were above 50 µM, above 50 µM and 61 µM, respectively. Further, in data set [4], the pEC50 is 7.30. Also, the outcome in data set [8] and in [13] was inactive. The figures for the CC50 at 168 h in data set [9], in data set [10] and in data set [12] were above 50 µM, 65 µM and above 50 µM, respectively. For the same compound, the EC50 result in [11] is “Not Active”.

Regarding `O=C(Cn1cc(C#Cc2ccc3c4cccc5cccc(c6cccc2c63)c54)c(=O)[nH]c1=O)NCCO`, the Activity result in data set [1], in data set [5] and in data set [6] was “Toxic” throughout. The CC50 at 24 h is above 50 µM in data set [2] and above 104 µM in data set [7]. The pEC50 in data set [4] was 8.52. Also, the outcome in data set [8] and in data set [13] was inactive. Also, the figures for the half-maximal cytotoxic concentration (CC50) at 168 h in data set [9] and in [10] were above 50 µM and above 104 µM, respectively. For the same compound, the EC50 entry in data set [11] is “Not Active”.

Take `CCCCNC(=O)Cn1cc(C#Cc2ccc3c4cccc5cccc(c6cccc2c63)c54)c(=O)[nH]c1=O`: the Activity result in [1], in [5] and in data set [6] was “Toxic” throughout. The CC50 at 24 h was above 50 µM in [2] and 76 µM in data set [7]. The pEC50 in [4] is 7.85. Also, the outcome in data set [8] and in data set [13] was inactive. The CC50 at 168 h in data set [9] was above 50 µM; in data set [10], 76 µM. Further, the EC50 result in [11] is “Not Active”.

Take `CC(C)(C)C(=O)OCn1c(=O)c(C#Cc2ccc3c4cccc5cccc(c6cccc2c63)c54)cn(CC(=O)NC[C@H](O)C(C)(C)CO)c1=O`: the Activity entry in data set [1], in data set [5] and in [6] was “Toxic” throughout. In addition, the CC50 at 24 h in data set [2] is above 50 µM; in [3], above 50 µM; in [7], 19 µM. Besides, the pEC50 in [4] was 9.10. Also, the result in data set [8] and in [13] was inactive. Besides, the CC50 at 168 h in data set [9] is above 50 µM; in [10], 19 µM; in [12] it was above 50 µM. Besides, the EC50 entry in data set [11] is reported as “Not Active”.

Turning to `CCCCNC(=O)Cn1cc(C#Cc2ccc3c4cccc5cccc(c6cccc2c63)c54)c(=O)n(COC(=O)C(C)(C)C)c1=O`, the Activity result in data set [1], in data set [5] and in data set [6] was “Toxic” each time. The CC50 at 24 h in data set [2] was above 50 µM; in data set [3], above 50 µM; in data set [7], 38 µM. Also, the pEC50 in [4] was 7.27. Besides, the outcome in [8] and in data set [13] was inactive. In addition, the CC50 at 168 h is above 50 µM in data set [9], 10 µM in data set [10] and above 50 µM in data set [12]. The EC50 result in [11] is “Not Active”.

Regarding `CC(C)(C)C(=O)OCn1c(=O)c(C#Cc2ccc3c4cccc5cccc(c6cccc2c63)c54)cn(CC(=O)NCCCCCCO)c1=O`, the Activity result in [1], in data set [5] and in [6] was “Toxic” each time. The CC50 at 24 h in data set [2] is above 50 µM; in data set [3] it was 38 µM; in [7] it was 19 µM. In [4], the pEC50 was 7.62. The result in data set [8] and in [13] was inactive. Moreover, the CC50 at 168 h in data set [9] is above 50 µM; in data set [10], 38 µM; in data set [12], above 50 µM. Also, in data set [11], the EC50 entry is given as “Not Active”.

`O=C(Cn1cc(C#Cc2ccc3c4cccc5cccc(c6cccc2c63)c54)c(=O)[nH]c1=O)N(CCO)CCO`: the Activity result in [1], in data set [5] and in data set [6] was “Toxic” throughout. Further, the CC50 at 24 h in [2] was above 50 µM; in data set [3], above 50 µM; in data set [7], above 104 µM. The pEC50 in data set [4] was 8.15. Further, the outcome in data set [8] and in data set [13] was inactive. Also, the CC50 at 168 h in [9] is above 50 µM; in data set [10], above 104 µM; in data set [12], above 50 µM. In addition, the EC50 result in data set [11] is “Not Active”.

The compound `CC(C)(C)C(=O)OC[C@@H]1CC[C@H](n2cc(C#Cc3ccc4c5cccc6cccc(c7cccc3c74)c65)c(=O)[nH]c2=O)O1` had a pEC50 in data set [14] of 6.72.

For `CC(C)(C)C(=O)OCn1c(=O)c(C#Cc2ccc3c4cccc5cccc(c6cccc2c63)c54)cn(CC(=O)NCCCCCO)c1=O`, the Activity result in data set [1], in [5] and in [6] was “Toxic” in each case. Moreover, the CC50 at 24 h in data set [2] is above 50 µM; in data set [3], 32 µM; in data set [7], 19 µM. The pEC50 in [4] was 8.80. Besides, the result in data set [8] and in data set [13] was inactive. In addition, the values for the CC50 at 168 h in data set [9], in data set [10] and in [12] were above 50 µM, 10 µM and above 50 µM, respectively. The EC50 entry in data set [11] is on record as “Not Active”.

Turning to `O=c1[nH]c(=O)n([C@H]2CC[C@@H](CO)O2)cc1C#Cc1ccc2c3cccc4cccc(c5cccc1c52)c43`, the pEC50 in data set [14] is 7.06.

What is called CC50 is the concentration at which the toxic effect on the cells reaches its halfway point. For orientation: pEC50 means −log10 of the EC50, conventionally taken in molar units.
